Results on five compounds are retold here after patent US12383495B2, “Resident articles for gram-level dosing” (Massachusetts Institute of Technology, priority 2018, dated 2025).

The nature of data set [1]: In vitro drug release from drug-vinylpolysiloxane pills/articles in simulated gastric fluid. The class given is physicochemical. The conditions noted are these: for in vitro release from drug-VPS pill: SGF, 37° C., up to 28 days.
Experimental: Articles with a series of 30 pills were made so that there was 1 gram of doxycycline hyclate in 2 grams of vinylpolysiloxane. Pills were coated with either cellulose acetate butyrate (CAB) or with Eudragit RS PO. A control with no coatings was also made. The articles were immersed in simulated gastric fluid, and the cumulative release of doxycycline hyclate was measured for more than 26 days. […] Thickness of coatings was tuned by increasing the spray volume. […] Individual pills made of drug-VPS for doxycycline hyclate, isoniazid, ethambutol, pyrazinamide, moxifloxacin were used to evaluate long-term release kinetics in SGF. […] Drug concentrations were then analyzed using a High-Performance Liquid Chromatography (HPLC). […] An Agilent 1260 Infinity II HPLC system (Agilent Technologies, Inc.) equipped with a Model 1260 quaternary pump, Model 1260 High Performance autosampler, Model 1260 thermostat, Model 1260 Infinity Thermostatted Column Compartment control module, and Model 1260 diode array detector was utilized. Data processing and analysis was performed using OpenLab CDS ChemStation (Agilent Technologies, Inc.). All solvents used were purchased from Sigma-Aldrich Corporation. For doxycycline hyclate, chromatographic isocratic separation was carried out on an Agilent 4.6×50 mm AdvanceBio RP-mAb SB-C8 analytical column with 3.5 μm particles, maintained at 55° C. The optimized mobile phase consisted of 20 mM dipotassium phosphate buffer and acetonitrile (pH 6 adjusted with triethylamine) [60:40 (v/v)] at a flow rate of 0.85 mL/min over a 4 min run time. The injection volume was 5 μl, and the selected ultraviolet (UV) detection wavelength was 293 nm.
The nature of data set [2]: In vitro drug release from drug-VPS pills/devices in water. The class given is physicochemical. As to conditions: 37° C.
Experimental: Three intact rifampicin devices were fabricated by loading 2 grams of drug into VPS pills. The devices were incubated in 500 mL of nanopure water for up to 26 days in a shaking incubator at 37° C. and 200 rpm, with media exchange at specified time intervals. […] The drug concentrations samples were then measured on an Infinite M200Pro (Tecan) reader (absorbance, 475 nm).
For data set [3] the following is noted: pig, in vivo.

Regarding `CC[C@@H](CO)NCCN[C@@H](CC)CO` [ethambutol], the “in vitro release from drug-VPS pill” value in data set [1] was “able to release”.
For the compound `NNC(=O)c1ccncc1` [isoniazid], the “in vitro release from drug-VPS pill/device” value in data set [2] is “able to release”.
Consider `NC(=O)c1cnccn1` [pyrazinamide], for which, in data set [1], the “in vitro release from drug-VPS pill” value is given as “able to release”.
For the compound `CO[C@H]1/C=C/O[C@@]2(C)Oc3c(C)c(O)c4c(O)c(c(/C=N/N5CCN(C)CC5)c(O)c4c3C2=O)NC(=O)/C(C)=C\C=C\[C@H](C)[C@H](O)[C@@H](C)[C@@H](O)[C@@H](C)[C@H](OC(C)=O)[C@@H]1C` [rifampicin], the “duration of detectable serum concentrations” value in data set [3] is “detectable serum concentrations for a week”.
Take doxycycline hyclate: the burst release result in data set [1] (PEG 3350 in matrix, pills coated with Eudragit RS PO or Eudragit NM 30D) was “prevented the burst release in the first day”; in data set [1] (article of 30 pills coated with Eudragit RS PO, simulated gastric fluid, vs uncoated control) it was “prevented the burst release in the first couple days”; in data set [1] (article of 30 pills coated with cellulose acetate butyrate (CAB), simulated gastric fluid, vs uncoated control) it was “prevented the burst release in the first couple days”. Also, the rate of release result in data set [1] (PEG 3350 in matrix, thicker coating of Eudragit NM 30D) was “slower rate of release”. Further, the release kinetic profile result in data set [1] (VPS pills coated with Eudragit RS 100, SGF) was “linear kinetic profile with limited burst release”. Further, the “duration of drug release (cumulative release)” value in data set [1] (articles of 30 pills, 1 gram drug in 2 grams vinylpolysiloxane, CAB-coated, Eudragit RS PO-coated or uncoated, simulated gastric fluid) is given as “more than 26 days”. Also, the “burst release and release rate” value in data set [1] (multi-matrix pill (concentric layers of different drug/matrix concentration)) was “reducing the burst release and release rate”; in data set [1] (pills coated with PDMS of different viscosities (750 cst and 25 cst)), “blunted the burst release and slowed down the release rate”. Further, the “effect of excipient on rate of release” value in data set [1] (polyethylene glycol (PEG) 3350 added to drug/siloxane matrix) is on record as “increase the rate of release”. In data set [3], the absorption entry is “absorbed rapidly”. Moreover, the “duration of detectable drug in serum” value in data set [3] is reported as “at least 28 days”. Also, the “duration of sustained drug release (non-zero concentrations in the blood)” value in data set [3] was “at least 7 days”.
